The target in assay [1] is T1, Beta-adrenergic receptor kinase 1 (Homo sapiens) (UniProt P25098).
T1 sequence (whole entry): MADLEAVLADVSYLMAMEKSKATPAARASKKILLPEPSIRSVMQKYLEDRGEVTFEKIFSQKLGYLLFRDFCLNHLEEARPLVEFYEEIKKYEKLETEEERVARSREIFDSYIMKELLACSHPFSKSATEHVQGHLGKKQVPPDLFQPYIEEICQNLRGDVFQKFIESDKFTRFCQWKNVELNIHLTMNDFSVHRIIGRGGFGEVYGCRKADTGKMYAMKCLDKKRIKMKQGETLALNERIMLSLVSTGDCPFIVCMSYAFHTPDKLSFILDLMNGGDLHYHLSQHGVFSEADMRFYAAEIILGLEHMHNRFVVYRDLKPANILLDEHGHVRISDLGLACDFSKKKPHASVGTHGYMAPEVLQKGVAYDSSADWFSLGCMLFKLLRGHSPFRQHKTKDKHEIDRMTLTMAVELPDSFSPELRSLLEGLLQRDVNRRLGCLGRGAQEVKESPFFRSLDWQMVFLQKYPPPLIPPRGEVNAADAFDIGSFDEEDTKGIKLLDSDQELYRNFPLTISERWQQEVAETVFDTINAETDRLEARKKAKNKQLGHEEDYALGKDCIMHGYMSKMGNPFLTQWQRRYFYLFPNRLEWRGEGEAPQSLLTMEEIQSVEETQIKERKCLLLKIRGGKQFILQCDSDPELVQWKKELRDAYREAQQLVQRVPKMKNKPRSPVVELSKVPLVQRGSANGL
The assay is described as follows: Inhibition of human recombinant BARK1 at 15 nM related to control ULK1.

The target of assay [2] is Tau-tubulin kinase 1 (Homo sapiens) (UniProt Q5TCY1). Description: Inhibition of human recombinant TTBK1 at 15 nM in presence of ATP by radiometric assay relative to control.
Tau-tubulin kinase 1 (Homo sapiens), sequence (Q5TCY1 whole entry): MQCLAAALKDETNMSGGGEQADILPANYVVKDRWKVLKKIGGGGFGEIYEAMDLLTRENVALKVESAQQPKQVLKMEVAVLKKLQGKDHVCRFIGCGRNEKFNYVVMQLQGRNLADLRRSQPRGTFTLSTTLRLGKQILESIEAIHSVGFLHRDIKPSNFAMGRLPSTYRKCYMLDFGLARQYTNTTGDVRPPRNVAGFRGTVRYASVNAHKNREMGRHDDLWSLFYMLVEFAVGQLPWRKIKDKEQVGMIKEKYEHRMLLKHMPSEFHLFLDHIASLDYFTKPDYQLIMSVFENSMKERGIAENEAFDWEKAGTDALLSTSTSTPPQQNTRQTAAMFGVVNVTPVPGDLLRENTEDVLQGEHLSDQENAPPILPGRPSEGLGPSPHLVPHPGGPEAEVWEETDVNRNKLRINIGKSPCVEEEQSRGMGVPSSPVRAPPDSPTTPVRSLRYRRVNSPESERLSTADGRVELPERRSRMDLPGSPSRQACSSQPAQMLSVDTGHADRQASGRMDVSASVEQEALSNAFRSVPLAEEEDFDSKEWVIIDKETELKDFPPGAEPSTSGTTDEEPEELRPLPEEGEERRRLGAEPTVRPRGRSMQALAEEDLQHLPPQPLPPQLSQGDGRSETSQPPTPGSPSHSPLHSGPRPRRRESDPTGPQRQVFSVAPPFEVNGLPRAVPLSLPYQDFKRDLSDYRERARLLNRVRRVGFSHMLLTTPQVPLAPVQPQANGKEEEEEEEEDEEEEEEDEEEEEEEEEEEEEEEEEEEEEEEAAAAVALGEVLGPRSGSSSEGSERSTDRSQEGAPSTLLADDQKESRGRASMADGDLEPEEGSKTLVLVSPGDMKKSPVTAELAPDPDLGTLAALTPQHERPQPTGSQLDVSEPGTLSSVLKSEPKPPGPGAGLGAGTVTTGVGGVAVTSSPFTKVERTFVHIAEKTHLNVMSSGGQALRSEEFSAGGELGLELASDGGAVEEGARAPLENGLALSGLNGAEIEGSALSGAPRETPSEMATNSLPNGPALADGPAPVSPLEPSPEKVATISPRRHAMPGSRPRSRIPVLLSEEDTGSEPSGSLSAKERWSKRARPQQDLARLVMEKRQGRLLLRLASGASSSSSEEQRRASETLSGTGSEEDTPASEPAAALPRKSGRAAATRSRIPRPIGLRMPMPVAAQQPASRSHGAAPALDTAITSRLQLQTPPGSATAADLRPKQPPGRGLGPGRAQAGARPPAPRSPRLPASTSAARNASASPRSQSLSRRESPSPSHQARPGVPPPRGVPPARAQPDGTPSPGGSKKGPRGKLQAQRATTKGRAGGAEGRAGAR

In general, inhibition refers to the percentage by which the read-out fell short of the control. Consider `CC(C)[C@H](NC(=O)c1cc(-c2cnn3cc(-c4ccc(OCCN5CCCCC5)cc4)cnc23)cs1)C(F)(F)F`, for which the fold change (FC) in assay [1] was 0. In addition, the inhibition in assay [2] was determined as 0%.

The record behind these values is ChEMBL document CHEMBL5653631, “A Potent and Selective ULK1 Inhibitor Suppresses Autophagy and Sensitizes Cancer Cells to Nutrient Stress” (iScience, 2018).
